Measurements taken from patent US20240208954A1, “OXADIAZOLE COMPOUND, PREPARATION METHOD THEREFOR, PHARMACEUTICAL COMPOSITION AND USE THEREOF” (SHANGHAI INSTITUTE OF MATERIA MEDICA, CHINESE ACADEMY OF …, priority 2020, published 2024).
“And” between values parts separate entries of the source, which are not always exact repeats. Equal entries are not always repeated. “Also recorded” adds a separate entry of the source. Where two headings read alike, the source gives them in different places.

Columns and labels:
[1] = test system: CCI4-induced liver fibrosis model; assay: Pharmacological activity test in carbon tetrachloride induced liver fibrosis model; format: in vivo, C57BL/6 mice
Protocol: Male C57BL/6 mice were injected intraperitoneally with 5% CCI4(dissolved in corn oil) at 5 mL/kg twice a week to induce liver fibrosis model. Three weeks after modeling, mice were randomly divided into five groups: model control group (Model, n=12), positive compound FTY720 group (2 mg/kg, n=9), positive compound OCA group (30 mg/kg, n=10), low dose group (3 mg/kg), high dose group (10 mg/kg), FTY720 was administered by intraperitoneal injection and the rest of the groups were administered by oral gavage, once a day. After 5 weeks of administration, the mice were sacrificed by dislocation after blood was taken via the posterior ophthalmic plexus, liver and spleen were taken and weighed. Part of the liver was fixed in 4% paraformaldehyde, and part of the liver and serum were stored at −80° C. 10 mice from the same litter were injected intraperitoneally with the same dose of corn oil throughout the experiment as a systemic control.

[2] = Preliminary assessment of pharmacokinetics in mice; format: in vivo, CD-1 mice
Protocol: Dosing Regimen 9 CD-1 mice, male, weighing 20-26 g, were randomly divided into 3 groups with 3 mice in each group. The test compounds were administered intragastric, intravenously or intraperitoneally according to the following protocol. The mice were fasted for 12 h before the test and drank water freely. Food was consumed uniformly 2 h after administration. [table] The intragastric administration solution was prepared with DMSO/0.5% HPMC(5/95, v/v) to the final concentration. Intravenous and intraperitoneal administration solution was formulated with DMSO/PEG300/EtOH/NaCl(5/40/5/50, v/v/v). The sample of the administration solution was left (50 μL of the solution was mixed with 50 μL of DMSO before and after the administration, respectively) for test. The drug was given according to the above dose, the time of administration was recorded, and 20 μL of blood was taken from the femoral plexus of mice at the above set time points and placed in heparinized tubes. The blood was immediately centrifuged at 11000 rpm for 5 min. 10 μL of plasma was immediately and accurately sucked into a centrifuge tube prefilled with 100 μL of PK-IS solution (prepared with methanol: acetonitrile (1:1,v/v)), well mixed, and freezed at −20° C. for test.

CC(C)Oc1ccc(-c2nc(-c3ccc(CN4CC(C(=O)O)C4)c4ccccc34)no2)cc1C#N.Cl [Compound A1, 1-((4-(5-(3-cyano-4-isopropoxyphenyl)-1,2,4-oxadiazol-3-yl)naphthalen-1-yl)methyl) azetidine-3-carboxylic acid hydrochloric acid]
hydroxyproline content in the liver ([1]; high dose (10 mg/kg), 10 mg/kg): significantly alleviated; also recorded: alleviating | mRNA expression of liver fibrosis-related genes (Tgfb, Col1a1) ([1]; high dose (10 mg/kg), 10 mg/kg): significantly downregulated; also recorded: downregulates | liver and spleen organ weights ([1]; oral gavage once a day, 5 weeks): without affecting | ALT levels in serum ([1]; oral gavage once a day, 5 weeks, 3 and 10 mg/kg groups): significantly reduced | collagen deposition in the liver ([1]; pathological section analysis): significantly reduced | Concentration of A1 Drug in Plasma of Mice ([2]; intraperitoneal injection 20 mg/kg, 0.05 h, individual animals 4-6, 20 mg/kg): 1105 ng/mL and 473 ng/mL and 715 ng/mL | Concentration of A1 Drug in Plasma of Mice ([2]; intraperitoneal injection 20 mg/kg, 0.25 h, individual animals 4-6, 20 mg/kg): 827 ng/mL and 1507 ng/mL | Concentration of A1 Drug in Plasma of Mice ([2]; intraperitoneal injection 20 mg/kg, 0.75 h, individual animals 4-6, 20 mg/kg): 1206 ng/mL and 1534 ng/mL and 3318 ng/mL | Concentration of A1 Drug in Plasma of Mice ([2]; intraperitoneal injection 20 mg/kg, 2.00 h, individual animals 4-6, 20 mg/kg): 516 ng/mL and 1443 ng/mL and 4405 ng/mL | Concentration of A1 Drug in Plasma of Mice ([2]; intraperitoneal injection 20 mg/kg, 4.00 h, individual animals 4-6, 20 mg/kg): 376 ng/mL and 201 ng/mL and 535 ng/mL | Concentration of A1 Drug in Plasma of Mice ([2]; intraperitoneal injection 20 mg/kg, 8.00 h, individual animals 4-6, 20 mg/kg): 273 ng/mL and 78.2 ng/mL and 119 ng/mL | Concentration of A1 Drug in Plasma of Mice ([2]; intraperitoneal injection 20 mg/kg, 24.0 h, individual animals 4-6, 20 mg/kg): 86.9 ng/mL and 26.5 ng/mL and 35.0 ng/mL | concentration at 0.25 h ([2]; male, CD-1, mouse, plasma, intraperitoneal, 20 mg/kg, title: intraperitoneal 20 mg/kg, 0.25 h, mean, read-out: Concentration of A1 Drug in Plasma of Mice): 1740 ng/mL | concentration at 0.5 h ([2]; male, CD-1, mouse, plasma, intraperitoneal, 20 mg/kg, title: intraperitoneal 20 mg/kg, 0.50 h, mean, read-out: Concentration of A1 Drug in Plasma of Mice): 2160 ng/mL | concentration at 1 h ([2]; male, CD-1, mouse, plasma, intraperitoneal, 20 mg/kg, title: intraperitoneal 20 mg/kg, 1.00 h, mean, read-out: Concentration of A1 Drug in Plasma of Mice): 2600 ng/mL | concentration at 2 h ([2]; male, CD-1, mouse, plasma, intraperitoneal, 20 mg/kg, title: intraperitoneal 20 mg/kg, 2.00 h, mean, read-out: Concentration of A1 Drug in Plasma of Mice): 1180 ng/mL | concentration at 4 h ([2]; male, CD-1, mouse, plasma, intraperitoneal, 20 mg/kg, title: intraperitoneal 20 mg/kg, 4.00 h, mean, read-out: Concentration of A1 Drug in Plasma of Mice): 142 ng/mL | concentration at 8 h ([2]; male, CD-1, mouse, plasma, intraperitoneal, 20 mg/kg, title: intraperitoneal 20 mg/kg, 8.00 h, mean, read-out: Concentration of A1 Drug in Plasma of Mice): 24.6 ng/mL | concentration at 24 h ([2]; male, CD-1, mouse, plasma, intraperitoneal, 20 mg/kg, title: intraperitoneal 20 mg/kg, 24.0 h, individual animals 1-3, read-out: Concentration of A1 Drug in Plasma of Mice): 4.8 ng/mL | concentration at 24 h ([2]; male, CD-1, mouse, plasma, intraperitoneal, 20 mg/kg, title: intraperitoneal 20 mg/kg, 24.0 h, mean, read-out: Concentration of A1 Drug in Plasma of Mice): 4.13 ng/mL | concentration at 0.05 h ([2]; male, CD-1, mouse, plasma, ip, 20 mg/kg, intraperitoneal injection 20 mg/kg, 0.05 h, mean, read-out: Concentration of A1 Drug in Plasma of Mice): 764 ng/mL | concentration at 0.25 h ([2]; male, CD-1, mouse, plasma, ip, 20 mg/kg, intraperitoneal injection 20 mg/kg, 0.25 h, individual animals 4-6, read-out: Concentration of A1 Drug in Plasma of Mice): 1170 ng/mL | concentration at 0.25 h ([2]; male, CD-1, mouse, plasma, ip, 20 mg/kg, intraperitoneal injection 20 mg/kg, 0.25 h, mean, read-out: Concentration of A1 Drug in Plasma of Mice): 1170 ng/mL | concentration at 0.75 h ([2]; male, CD-1, mouse, plasma, ip, 20 mg/kg, intraperitoneal injection 20 mg/kg, 0.75 h, mean, read-out: Concentration of A1 Drug in Plasma of Mice): 2020 ng/mL | concentration at 2 h ([2]; male, CD-1, mouse, plasma, ip, 20 mg/kg, intraperitoneal injection 20 mg/kg, 2.00 h, mean, read-out: Concentration of A1 Drug in Plasma of Mice): 2120 ng/mL | concentration at 4 h ([2]; male, CD-1, mouse, plasma, ip, 20 mg/kg, intraperitoneal injection 20 mg/kg, 4.00 h, mean, read-out: Concentration of A1 Drug in Plasma of Mice): 370 ng/mL | concentration at 8 h ([2]; male, CD-1, mouse, plasma, ip, 20 mg/kg, intraperitoneal injection 20 mg/kg, 8.00 h, mean, read-out: Concentration of A1 Drug in Plasma of Mice): 157 ng/mL | concentration at 24 h ([2]; male, CD-1, mouse, plasma, ip, 20 mg/kg, intraperitoneal injection 20 mg/kg, 24.0 h, mean, read-out: Concentration of A1 Drug in Plasma of Mice): 49.5 ng/mL | concentration at 0.05 h ([2]; male, CD-1, mouse, plasma, po, 2 mg/kg, title: oral 2 mg/kg, 0.05 h, individual animals 4-6, read-out: Concentration of A1 Drug in Plasma of Mice): 1790 ng/mL | concentration at 0.05 h ([2]; male, CD-1, mouse, plasma, po, 2 mg/kg, title: oral 2 mg/kg, 0.05 h, mean, read-out: Concentration of A1 Drug in Plasma of Mice): 1940 ng/mL | concentration at 0.25 h ([2]; male, CD-1, mouse, plasma, po, 2 mg/kg, title: oral 2 mg/kg, 0.25 h, individual animals 4-6, read-out: Concentration of A1 Drug in Plasma of Mice): 1040 ng/mL | concentration at 0.25 h ([2]; male, CD-1, mouse, plasma, po, 2 mg/kg, title: oral 2 mg/kg, 0.25 h, mean, read-out: Concentration of A1 Drug in Plasma of Mice): 878 ng/mL | concentration at 0.75 h ([2]; male, CD-1, mouse, plasma, po, 2 mg/kg, title: oral 2 mg/kg, 0.75 h, individual animals 4-6, read-out: Concentration of A1 Drug in Plasma of Mice): 178 ng/mL | concentration at 0.75 h ([2]; male, CD-1, mouse, plasma, po, 2 mg/kg, title: oral 2 mg/kg, 0.75 h, mean, read-out: Concentration of A1 Drug in Plasma of Mice): 169 ng/mL | concentration at 2 h ([2]; male, CD-1, mouse, plasma, po, 2 mg/kg, title: oral 2 mg/kg, 2.00 h, individual animals 4-6, read-out: Concentration of A1 Drug in Plasma of Mice): 49.2 ng/mL | concentration at 2 h ([2]; male, CD-1, mouse, plasma, po, 2 mg/kg, title: oral 2 mg/kg, 2.00 h, mean, read-out: Concentration of A1 Drug in Plasma of Mice): 49.8 ng/mL | concentration at 4 h ([2]; male, CD-1, mouse, plasma, po, 2 mg/kg, title: oral 2 mg/kg, 4.00 h, mean, read-out: Concentration of A1 Drug in Plasma of Mice): 8.43 ng/mL | concentration at 8 h ([2]; male, CD-1, mouse, plasma, po, 2 mg/kg, title: oral 2 mg/kg, 8.00 h, mean, read-out: Concentration of A1 Drug in Plasma of Mice): 3.97 ng/mL | concentration at 24 h ([2]; male, CD-1, mouse, plasma, po, 2 mg/kg, title: oral 2 mg/kg, 24.0 h, individual animals 4-6, read-out: Concentration of A1 Drug in Plasma of Mice): 0.5 ng/mL | concentration at 24 h ([2]; male, CD-1, mouse, plasma, po, 2 mg/kg, title: oral 2 mg/kg, 24.0 h, mean, read-out: Concentration of A1 Drug in Plasma of Mice): 0.6 ng/mL | Concentration of A1 Drug in Plasma of Mice ([2]; title: intraperitoneal 20 mg/kg, 0.25 h, individual animals 1-3): 1095 ng/mL and 1070 ng/mL and 3041 ng/mL | Concentration of A1 Drug in Plasma of Mice ([2]; title: intraperitoneal 20 mg/kg, 0.50 h, individual animals 1-3): 1574 ng/mL and 1388 ng/mL and 3514 ng/mL | Concentration of A1 Drug in Plasma of Mice ([2]; title: intraperitoneal 20 mg/kg, 1.00 h, individual animals 1-3): 1914 ng/mL and 1843 ng/mL and 4055 ng/mL | Concentration of A1 Drug in Plasma of Mice ([2]; title: intraperitoneal 20 mg/kg, 2.00 h, individual animals 1-3): 571 ng/mL and 1318 ng/mL and 1662 ng/mL | Concentration of A1 Drug in Plasma of Mice ([2]; title: intraperitoneal 20 mg/kg, 4.00 h, individual animals 1-3): 146 ng/mL and 215 ng/mL and 65.0 ng/mL | Concentration of A1 Drug in Plasma of Mice ([2]; title: intraperitoneal 20 mg/kg, 8.00 h, individual animals 1-3): 25.8 ng/mL and 36.4 ng/mL and 11.5 ng/mL | Concentration of A1 Drug in Plasma of Mice ([2]; title: intraperitoneal 20 mg/kg, 24.0 h, individual animals 1-3): 3.80 ng/mL | Concentration of A1 Drug in Plasma of Mice ([2]; title: oral 2 mg/kg, 0.05 h, individual animals 4-6, 2 mg/kg): 1521 ng/mL and 2513 ng/mL | Concentration of A1 Drug in Plasma of Mice ([2]; title: oral 2 mg/kg, 0.25 h, individual animals 4-6, 2 mg/kg): 572 ng/mL and 1021 ng/mL | Concentration of A1 Drug in Plasma of Mice ([2]; title: oral 2 mg/kg, 0.75 h, individual animals 4-6, 2 mg/kg): 113 ng/mL and 216 ng/mL | Concentration of A1 Drug in Plasma of Mice ([2]; title: oral 2 mg/kg, 2.00 h, individual animals 4-6, 2 mg/kg): 39.5 ng/mL and 60.6 ng/mL | Concentration of A1 Drug in Plasma of Mice ([2]; title: oral 2 mg/kg, 4.00 h, individual animals 4-6, 2 mg/kg): 8.60 ng/mL and 11.5 ng/mL and 5.20 ng/mL | Concentration of A1 Drug in Plasma of Mice ([2]; title: oral 2 mg/kg, 8.00 h, individual animals 4-6, 2 mg/kg): 8.70 ng/mL and 2.10 ng/mL and 1.10 ng/mL | Concentration of A1 Drug in Plasma of Mice ([2]; title: oral 2 mg/kg, 24.0 h, individual animals 4-6, 2 mg/kg): 0.800 ng/mL and 0.500 ng/mL
